According to PubChem BioAssay (NCI):
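In this assay, cells in 96-well plates receive the compound at five concentrations for 48 hours. Endpoints are linearly interpolated between the surrounding concentrations. TGI: total growth inhibition.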

Columns and labels:
Test in all cases: growth of human tumour cells (NCI), 48 h
OVCAR-3 ovarian = test system: OVCAR-3 ovarian
UO-31 renal = test system: UO-31 renal
SN12C renal = test system: SN12C renal
DU-145 prostate = test system: DU-145 prostate
K-562 leukemia = test system: K-562 leukemia
IGROV1 ovarian = test system: IGROV1 ovarian
MCF7 breast = test system: MCF7 breast
RXF 393 renal = test system: RXF 393 renal
HOP-92 NSCLC = test system: HOP-92 NSCLC
SR leukemia = test system: SR leukemia
SK-MEL-5 melanoma = test system: SK-MEL-5 melanoma
SNB-19 CNS = test system: SNB-19 CNS
NCI-H522 lung = test system: NCI-H522 lung
MALME-3M melanoma = test system: MALME-3M melanoma
TK-10 renal = test system: TK-10 renal
RPMI-8226 leukemia = test system: RPMI-8226 leukemia
HCT-15 colon = test system: HCT-15 colon
SK-OV-3 ovarian = test system: SK-OV-3 ovarian
SK-MEL-2 melanoma = test system: SK-MEL-2 melanoma
ACHN renal = test system: ACHN renal
NCI-H23 lung = test system: NCI-H23 lung
CCRF-CEM leukemia = test system: CCRF-CEM leukemia
HL-60(TB) leukemia = test system: HL-60(TB) leukemia
NCI/ADR-RES ovarian = test system: NCI/ADR-RES ovarian
COLO 205 colon = test system: COLO 205 colon
SW-620 colon = test system: SW-620 colon
MOLT-4 leukemia = test system: MOLT-4 leukemia
OVCAR-8 ovarian = test system: OVCAR-8 ovarian
UACC-257 melanoma = test system: UACC-257 melanoma
SF-295 CNS = test system: SF-295 CNS
786-0 renal = test system: 786-0 renal
M14 melanoma = test system: M14 melanoma
U251 CNS = test system: U251 CNS
PC-3 prostate = test system: PC-3 prostate
SF-268 CNS = test system: SF-268 CNS
MDA-N = test system: MDA-N
HT29 colon = test system: HT29 colon
OVCAR-5 ovarian = test system: OVCAR-5 ovarian
SK-MEL-28 melanoma = test system: SK-MEL-28 melanoma
EKVX NSCLC = test system: EKVX NSCLC
HCT-116 colon = test system: HCT-116 colon
KM12 colon = test system: KM12 colon
LOX IMVI melanoma = test system: LOX IMVI melanoma
NCI-H226 lung = test system: NCI-H226 lung
OVCAR-4 ovarian = test system: OVCAR-4 ovarian
NCI-H460 lung = test system: NCI-H460 lung
MDA-MB-231 breast = test system: MDA-MB-231 breast
HS 578T breast = test system: HS 578T breast
SNB-75 CNS = test system: SNB-75 CNS
CAKI-1 renal = test system: CAKI-1 renal
UACC-62 melanoma = test system: UACC-62 melanoma
A549 NSCLC = test system: A549 NSCLC
SF-539 CNS = test system: SF-539 CNS
MDA-MB-435 = test system: MDA-MB-435
HOP-62 NSCLC = test system: HOP-62 NSCLC
HCC-2998 colon = test system: HCC-2998 colon
T-47D breast = test system: T-47D breast
A498 renal = test system: A498 renal

Measured: TGI

Nc1ncc2c(n1)-c1ccccc1OC2N1CCOCC1 (centres undefined)
not listed: HCC-2998 colon | T-47D breast | A498 renal
> 100 µM: all other assays above

O=c1c2ccccc2nc(N/N=C/c2ccc(Cl)cc2)n1-c1ccccc1
77.2 µM: SK-MEL-2 melanoma
88 µM: UO-31 renal
not listed: RPMI-8226 leukemia | KM12 colon | HS 578T breast | SNB-75 CNS
> 100 µM: all other assays above
